Tests used:
Experiment in all cases: KINOMEscan kinase binding assay (Eurofins/DiscoveRx), % Ctrl
Conditions in all cases: 1 μM
[1] = target: T1, kinases (Homo sapiens, UniProt P10721, A829P)
T1 construct: purchased Eurofins/DiscoveRx; host or cells: E. coli BL21-derived host (T7 phage display) for most kinases; HEK-293 for the rest
Experimental: (§1) Kinase binding assays were performed at Eurofins/DiscoveRx using the general KINOMEscan Protocol (Fabian, M. A. et al., “A small molecule-kinase interaction map for clinical kinase inhibitors,” Nat. Biotechnol. 2005, 23(3):329-36). For most assays, kinase-tagged T7 phage strains were prepared in an E. coli host derived from the BL21 strain. E. coli were grown to log-phase and infected with T7 phage and incubated with shaking at 32° C. until lysis. The lysates were centrifuged and filtered to remove cell debris. The remaining kinases were produced in HEK-293 cells and subsequently tagged with DNA for qPCR detection. Streptavidin-coated magnetic beads were treated with biotinylated small molecule ligands for 30 minutes at room temperature to generate affinity resins for kinase assays. The liganded beads were blocked with excess biotin and washed with blocking buffer (SeaBlock (Pierce), 1% BSA, 0.05% Tween 20, 1 mM DTT) to remove unbound ligand and to reduce nonspecific binding. Binding reactions were assembled by combining kinases, liganded affinity beads, and test compounds in 1×binding buffer (20% SeaBlock, 0.17×PBS, 0.05% Tween 20, 6 mM DTT). All reactions were performed in polystyrene 96-well plates in a final volume of 0.135 mL. The assay plates were incubated at room temperature with shaking for 1 hour and the affinity beads were washed with washbuffer (1×PBS, 0.05% Tween 20). The beads were then re-suspended in elution buffer (1× PBS, 0.05% Tween 20, 0.5 μM non-biotinylated affinity ligand) and incubated at room temperature with shaking for 30 minutes. The kinase concentration in the eluates was measured by qPCR. Results for compounds tested in this assay at a given concentration are reported as “% Ctrl”, where lower numbers indicate stronger binding in the matrix.
(§2) (test compound signal-positive control signal)/(negative control signal-positive control signal) X100

[2] = target: T2, kinases (Homo sapiens, UniProt P00533)
T2 construct: purchased Eurofins/DiscoveRx; host or cells: E. coli BL21-derived host (T7 phage display) for most kinases; HEK-293 for the rest
Experimental: as §1, §2

[3] = target: T3, kinases (Homo sapiens, UniProt P00519, M351T)
T3 construct: purchased Eurofins/DiscoveRx; host or cells: E. coli BL21-derived host (T7 phage display) for most kinases; HEK-293 for the rest
Experimental: as §1, §2

[4] = target: T4, kinases (Homo sapiens, UniProt P10721, T670I/V559D)
T4 construct: purchased Eurofins/DiscoveRx; host or cells: E. coli BL21-derived host (T7 phage display) for most kinases; HEK-293 for the rest
Experimental: as §1, §2

[5] = target: T5, kinases (Homo sapiens, UniProt P00533, DEL746-750)
T5 construct: purchased Eurofins/DiscoveRx; host or cells: E. coli BL21-derived host (T7 phage display) for most kinases; HEK-293 for the rest
Experimental: as §1, §2

[6] = target: T6, kinases (Homo sapiens, UniProt P36888, D835V)
T6 construct: purchased Eurofins/DiscoveRx; host or cells: E. coli BL21-derived host (T7 phage display) for most kinases; HEK-293 for the rest
T6 sequence (P36888 27-993 D835V): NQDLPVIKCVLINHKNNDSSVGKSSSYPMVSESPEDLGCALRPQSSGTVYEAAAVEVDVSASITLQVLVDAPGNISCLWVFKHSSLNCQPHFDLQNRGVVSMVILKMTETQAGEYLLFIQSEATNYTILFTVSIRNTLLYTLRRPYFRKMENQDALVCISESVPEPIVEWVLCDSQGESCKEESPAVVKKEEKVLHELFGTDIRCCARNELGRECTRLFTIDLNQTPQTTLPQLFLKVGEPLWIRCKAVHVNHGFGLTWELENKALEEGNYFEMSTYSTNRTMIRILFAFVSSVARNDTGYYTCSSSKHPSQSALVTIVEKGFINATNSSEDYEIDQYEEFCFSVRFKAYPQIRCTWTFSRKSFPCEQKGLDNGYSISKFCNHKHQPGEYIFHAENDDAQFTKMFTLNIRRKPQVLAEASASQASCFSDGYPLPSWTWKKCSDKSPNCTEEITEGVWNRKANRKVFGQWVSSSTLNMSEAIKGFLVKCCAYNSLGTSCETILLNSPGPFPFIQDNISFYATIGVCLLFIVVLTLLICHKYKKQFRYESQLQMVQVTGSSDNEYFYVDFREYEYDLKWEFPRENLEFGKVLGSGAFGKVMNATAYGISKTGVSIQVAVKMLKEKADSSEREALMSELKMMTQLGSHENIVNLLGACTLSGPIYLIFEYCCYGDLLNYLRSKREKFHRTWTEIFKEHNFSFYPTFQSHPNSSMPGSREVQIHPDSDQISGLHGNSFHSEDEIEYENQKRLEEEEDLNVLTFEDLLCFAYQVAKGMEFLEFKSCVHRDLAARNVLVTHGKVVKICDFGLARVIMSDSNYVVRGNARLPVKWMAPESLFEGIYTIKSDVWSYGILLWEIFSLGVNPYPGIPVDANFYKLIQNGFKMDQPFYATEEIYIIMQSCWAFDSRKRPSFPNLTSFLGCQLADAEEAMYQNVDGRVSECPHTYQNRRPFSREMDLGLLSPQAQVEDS
Experimental: as §1, §2

[7] = target: T7, kinases (Homo sapiens, UniProt P10721, V559D/V654A)
T7 construct: purchased Eurofins/DiscoveRx; host or cells: E. coli BL21-derived host (T7 phage display) for most kinases; HEK-293 for the rest
Experimental: as §1, §2

[8] = test system: kinases
Experimental: as §1, §2

[9] = target: T8, kinases (Homo sapiens, UniProt P07949, V804M)
T8 construct: purchased Eurofins/DiscoveRx; host or cells: E. coli BL21-derived host (T7 phage display) for most kinases; HEK-293 for the rest
Experimental: as §1, §2

[10] = target: T9, kinases (Homo sapiens, UniProt P00519, Q252H)
T9 construct: purchased Eurofins/DiscoveRx; host or cells: E. coli BL21-derived host (T7 phage display) for most kinases; HEK-293 for the rest
Experimental: as §1, §2

T8 sequence (P07949 29-1114 V804M): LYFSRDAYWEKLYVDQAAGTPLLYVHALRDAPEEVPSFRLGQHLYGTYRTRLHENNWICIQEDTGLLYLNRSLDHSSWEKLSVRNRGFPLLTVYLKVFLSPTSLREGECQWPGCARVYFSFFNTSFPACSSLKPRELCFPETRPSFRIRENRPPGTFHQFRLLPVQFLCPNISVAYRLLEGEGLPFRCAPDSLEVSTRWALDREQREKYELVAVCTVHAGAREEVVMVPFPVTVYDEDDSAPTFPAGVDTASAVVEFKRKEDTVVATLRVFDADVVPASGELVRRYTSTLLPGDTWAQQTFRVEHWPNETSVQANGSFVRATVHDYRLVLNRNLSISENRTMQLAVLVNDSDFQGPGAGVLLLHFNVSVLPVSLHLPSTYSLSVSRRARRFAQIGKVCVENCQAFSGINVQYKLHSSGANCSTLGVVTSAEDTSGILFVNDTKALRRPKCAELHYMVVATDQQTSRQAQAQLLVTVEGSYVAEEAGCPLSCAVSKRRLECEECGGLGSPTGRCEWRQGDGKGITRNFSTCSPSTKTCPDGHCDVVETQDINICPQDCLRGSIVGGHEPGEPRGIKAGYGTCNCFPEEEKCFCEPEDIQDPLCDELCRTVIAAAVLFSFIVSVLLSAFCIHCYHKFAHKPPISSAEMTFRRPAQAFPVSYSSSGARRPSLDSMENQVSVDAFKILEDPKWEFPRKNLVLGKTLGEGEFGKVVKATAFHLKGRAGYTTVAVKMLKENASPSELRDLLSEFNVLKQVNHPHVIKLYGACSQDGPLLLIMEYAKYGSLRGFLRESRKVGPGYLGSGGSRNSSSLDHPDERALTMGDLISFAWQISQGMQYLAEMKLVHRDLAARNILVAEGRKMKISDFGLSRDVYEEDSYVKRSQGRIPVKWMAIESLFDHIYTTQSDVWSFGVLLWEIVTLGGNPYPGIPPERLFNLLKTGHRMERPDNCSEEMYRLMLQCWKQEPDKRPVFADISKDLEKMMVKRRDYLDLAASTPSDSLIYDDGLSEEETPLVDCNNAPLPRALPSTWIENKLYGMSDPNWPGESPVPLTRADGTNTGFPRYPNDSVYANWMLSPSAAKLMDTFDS
T7 sequence (P10721 26-976 V559D/V654A): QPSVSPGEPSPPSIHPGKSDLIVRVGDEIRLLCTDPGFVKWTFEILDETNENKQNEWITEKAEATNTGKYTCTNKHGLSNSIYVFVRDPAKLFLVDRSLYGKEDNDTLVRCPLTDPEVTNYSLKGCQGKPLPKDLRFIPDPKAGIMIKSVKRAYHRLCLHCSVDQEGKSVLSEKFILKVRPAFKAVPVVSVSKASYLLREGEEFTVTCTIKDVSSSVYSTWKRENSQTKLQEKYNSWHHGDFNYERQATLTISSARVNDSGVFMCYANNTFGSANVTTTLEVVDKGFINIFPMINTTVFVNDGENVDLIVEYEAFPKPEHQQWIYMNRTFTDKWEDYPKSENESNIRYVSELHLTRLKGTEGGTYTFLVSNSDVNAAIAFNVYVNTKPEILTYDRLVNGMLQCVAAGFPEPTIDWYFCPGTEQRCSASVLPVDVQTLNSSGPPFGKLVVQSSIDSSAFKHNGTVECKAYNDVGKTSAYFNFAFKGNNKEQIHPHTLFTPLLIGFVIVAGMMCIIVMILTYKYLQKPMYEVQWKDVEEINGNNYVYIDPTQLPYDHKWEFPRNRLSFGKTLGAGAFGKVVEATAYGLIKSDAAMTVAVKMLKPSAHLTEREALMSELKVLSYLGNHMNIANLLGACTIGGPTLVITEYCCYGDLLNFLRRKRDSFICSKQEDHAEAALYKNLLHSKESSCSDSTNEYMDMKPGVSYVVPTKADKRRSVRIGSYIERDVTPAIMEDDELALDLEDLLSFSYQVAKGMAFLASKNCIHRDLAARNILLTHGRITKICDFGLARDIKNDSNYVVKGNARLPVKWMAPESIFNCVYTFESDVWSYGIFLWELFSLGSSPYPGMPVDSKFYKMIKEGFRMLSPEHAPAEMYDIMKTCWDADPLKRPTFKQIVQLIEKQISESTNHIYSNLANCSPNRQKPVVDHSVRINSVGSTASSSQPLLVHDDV
T4 sequence (P10721 26-976 V559D/T670I): as the sequence (P10721 26-976 V559D/V654A) above, with A629V, T645I counted along it
T1 sequence (P10721 26-976 A829P): as the sequence (P10721 26-976 V559D/V654A) above, with D534V, A629V, A804P counted along it

Row | Compound | % Ctrl, KIT(A829P) ([1]; KIT(A829P)) [% Ctrl] | % Ctrl, EGFR ([2]; EGFR) [% Ctrl] | % Ctrl, ABL1(M351T)-phosphorylated ([3]; ABL1(M351T)-phosphorylated) [% Ctrl] | % Ctrl, KIT(V559D, T670I) ([4]; KIT(V559D, T670I)) [% Ctrl] | % Ctrl, EGFR(E746-A750del) ([5]; EGFR(E746-A750del)) [% Ctrl] | % Ctrl, FLT3(D835V) ([6]; FLT3(D835V)) [% Ctrl] | % Ctrl, KIT(V559D, V654A) ([7]; KIT(V559D, V654A)) [% Ctrl] | % Ctrl, EGFR(L747-E749del, A750P) ([8]; EGFR(L747-E749del, A750P)) [% Ctrl] | % Ctrl, EGFR(L747-S752del, P753S) ([8]; EGFR(L747-S752del, P753S)) [% Ctrl] | % Ctrl, EGFR(L747-T751del, Sins) ([8]; EGFR(L747-T751del, Sins)) [% Ctrl] | % Ctrl, FLT3(ITD) ([8]; FLT3(ITD)) [% Ctrl] | % Ctrl, FLT3(ITD, D835V) ([8]; FLT3(ITD, D835V)) [% Ctrl] | % Ctrl, FLT3(ITD, F691L) ([8]; FLT3(ITD, F691L)) [% Ctrl] | % Ctrl, RET(V804M) ([9]; RET(V804M)) [% Ctrl] | % Ctrl, ABL1(Q252H)-nonphosphorylated ([10]; ABL1(Q252H)-nonphosphorylated) [% Ctrl] | % Ctrl, ABL1(Q252H)-phosphorylated ([10]; ABL1(Q252H)-phosphorylated) [% Ctrl] | further results
1 | Cc1cc2c([nH]1)/C=C1\C(=O)Nc3cnc(nc31)N(C)CCCOCCN(C)C2=O [Ex.71, [17a(18)Z]-2,5,12-trimethyl-6,7,9,10,11,12-hexahydro-1H-13,15-(azenometheno)dipyrrolo[3,2-f:3′,4′-i][1,4,11,13]oxatriazacyclohexadecine-4,17(5H,16H)-dione] | 100 | 95 | 100 | 100 | 100 | 100 | 100 | 92 | 100 | 67 | 91 | 100 | 100 | 89 | 97 | 100 | –
2 | Cc1cc2c([nH]1)/C=C1\C(=O)Nc3ccc(cc31)-c1cnn(C)c1CNCCN(C)C2=O [Ex. 125, [3a(4)Z]-6,9,14-trimethyl-9,10,11,12,13,14-hexahydro-1,17-(ethanediylidene)pyrazolo[4,3-m]dipyrrolo[3,2-f:3′,4′-i][1,4]diazacyclopentadecine-3,8(2H,5H)-dione] | 2.6 | 61 | 0.1 | 27 | 20 | 0.25 | 6.7 | 22 | 48 | 54 | 0 | 0 | 0 | 0 | 0 | 0.05 | –
3 | Cc1cc2c([nH]1)/C=C1\C(=O)Nc3cc(Cl)c(cc31)OCCO[C@@H](C(=O)N1CCN(C)CC1)CN(C)C2=O [Ex. 138, [7R,16a(17)Z]-19-chloro-2,5-dimethyl-7-(4-methylpipearazine-1-carbonyl)-6,7,9,10-tetrahydro-1H-12,14-(ethanediylidene)dipyrrolo[3,2-i:3′,4′-l][1,4,7]dioxazacyclopentadecine-4,16(5H,15H)-dione] | – | – | – | – | – | – | – | – | – | – | – | – | – | – | – | – | % Ctrl, KIT(A829P) ([1]; target KIT(A829P)): 100 % Ctrl; % Ctrl, EGFR ([2]; target EGFR): 76 % Ctrl; % Ctrl, ABL1(M351T)-phosphorylated ([3]; target ABL1(M351T)-phosphorylated): 71 % Ctrl; % Ctrl, KIT(V559D, T670I) ([4]; target KIT(V559D, T670I)): 73 % Ctrl; % Ctrl, EGFR(E746-A750del) ([5]; target EGFR(E746-A750del)): 78 % Ctrl; % Ctrl, FLT3(D835V) ([6]; target FLT3(D835V)): 18 % Ctrl; % Ctrl, KIT(V559D, V654A) ([7]; target KIT(V559D, V654A)): 62 % Ctrl; % Ctrl, EGFR(L747-E749del, A750P) ([8]; target EGFR(L747-E749del, A750P)): 100 % Ctrl; % Ctrl, EGFR(L747-S752del, P753S) ([8]; target EGFR(L747-S752del, P753S)): 61 % Ctrl; % Ctrl, EGFR(L747-T751del, Sins) ([8]; target EGFR(L747-T751del, Sins)): 96 % Ctrl; % Ctrl, FLT3(ITD) ([8]; target FLT3(ITD)): 73 % Ctrl; % Ctrl, FLT3(ITD, D835V) ([8]; target FLT3(ITD, D835V)): 24 % Ctrl; % Ctrl, FLT3(ITD, F691L) ([8]; target FLT3(ITD, F691L)): 49 % Ctrl; % Ctrl, RET(V804M) ([9]; target RET(V804M)): 81 % Ctrl; % Ctrl, ABL1(Q252H)-nonphosphorylated ([10]; target ABL1(Q252H)-nonphosphorylated): 100 % Ctrl; % Ctrl, ABL1(Q252H)-phosphorylated ([10]; target ABL1(Q252H)-phosphorylated): 98 % Ctrl
4 | Cc1cc2c([nH]1)/C=C1\C(=O)Nc3cc(Cl)c(cc31)OCCO[C@@H](C(=O)NC1CNC1)CN(C)C2=O [Ex. 133, [7R,16a(17)Z]-N-(azetidin-3-yl)-19-chloro-2,5-dimethyl-4,16-dioxo-4,5,6,7,9,10,15,16-octahydro-1H-12,14-(ethanediylidene)dipyrrolo[3,2-i:3′,4′-l][1,4,7]dioxazacyclopentadecine-7-carboxamide] | 54 | 99 | 58 | 7.4 | 100 | 2.3 | 83 | 100 | 100 | 100 | 26 | 2.8 | 5.6 | 69 | 61 | 49 | –
5 | Cc1cc2c([nH]1)/C=C1\C(=O)Nc3ccc(cc31)-c1cnn(C)c1COCCN(C)C2=O [Ex. 124, [3a(4)Z]-6,9,14-trimethyl-10,11,13,14-tetrahydro-2H-1,17-(ethanediylidene)pyrazolo[4,3-m]dipyrrolo[3,2-f:3′,4′-i][1,4]oxazacyclopentadecine-3,8(5H,9H)-dione] | 4.3 | 50 | 0.05 | 24 | 15 | 0 | 7.7 | 25 | 37 | 57 | 0 | 0 | 0.65 | 0.05 | 0 | 0 | –

Reference: patent US20230257396A1, “MACROCYCLES AND THEIR USE” (BLOSSOMHILL THERAPEUTICS, INC., priority 2020, published 2023)
